This series can be described thus: In vitro release of DMS from DMS-prodrug-loaded core-cross-linked polymeric micelles. Type of series: physicochemical. The settings on record: for 50% release of DMS: physiological conditions, prodrug covalently entrapped in CCL PM. How it is done:
The eluent was acetonitril/H2O (23:77, v/v) with a flow rate of 1 mL/min. The sample volume was 7.5 μL. UV detection occurred at 246 nm.
The hydrolysis rate of a specific ester was pH-dependent in its turn, in that at pH 8.4 hydrolysis was accelerated as compared to the hydrolysis rate at pH 7.4. […] The same trend is consistently observed at different pH (i.e. 7.4 and 8.4) and for the different types of micelles (based on HPMAm and HEMAm).

As to `C=C(C)C(=O)OCCSCC(=O)OCC(=O)[C@@]1(O)[C@H](C)CC2[C@@H]3CCC4=CC(=O)C=C[C@]4(C)[C@@]3(F)[C@@H](O)CC21C` (stereo partly drawn) [DMSL1, 2-(2-(2-((8S,9R,10S,11S,16R,17R)-9-fluoro-11,17-dihydroxy-10,13,16-trimethyl-3-oxo-6,7,8,9,10,11,12,13,14,15,16,17-dodecahydro-3H-cyclopenta[α]phenanthren-17-yl)-2-oxoethoxy)-2-oxoethylthio)ethyl methacrylate], the “50% release of DMS” value was around 4 weeks. For the same molecule, the “DMS release rate followed by UPLC” value (prodrug CCL PM, buffer pH 7.4 / 8.4, 37° C.) is reported as “very slow release”.

In the case of `C=C(C)C(=O)OCCS(=O)(=O)CC(=O)OCC(=O)[C@@]1(O)[C@H](C)CC2[C@@H]3CCC4=CC(=O)C=C[C@]4(C)[C@@]3(F)[C@@H](O)CC21C` (stereo partly drawn) [DMSL3, 2-(2-(2-((8S,9R,10S,11S,16R,17R)-9-fluoro-11,17-dihydroxy-10,13,16-trimethyl-3-oxo-6,7,8,9,10,11,12,13,14,15,16,17-dodecahydro-3H-cyclopenta[α]phenanthren-17-yl)-2-oxoethoxy)-2-oxoethylsulfonyl)ethyl methacrylate], the “50% release of DMS” value is recorded as around 1 weeks.

Values taken from patent publication US9339554B2, “Tunable, biodegradable linker molecules for transient conjugation of components in drug delivery systems, and drug delivery systems prepared therewith” (CRISTAL DELIVERY B.V., priority 2010, dated 2016).
